Data taken from patent US12678471B2 (priority 2022, dated 2026).
Read-outs that look alike come from different tables or passages of the source.

What was measured:
Format in all cases: cell-based
[1] = system: Omicron S protein pseudotyped lentivirus (spike protein of the SARS-CoV-2 Omicron variant); test: microbe, parasite or virus in culture; settings: read-out: Half inhibition concentration of viral infection (IC50) Omicron
[2] = system: D614G S protein pseudotyped lentivirus (spike protein of the SARS-CoV-2 D614G variant); settings: read-out: Half inhibition concentration of viral infection (IC50) D614G
[3] = system: Delta S protein pseudotyped lentivirus (spike protein of the SARS-CoV-2 Delta variant); settings: ACE2-293T cells; virus pretreated with compound 1 hour at 37° C.; 24 hours infection; mean ± SD (n = 3); read-out: Half inhibition concentration of viral infection (IC50) Delta

Compound | IC50 ([1]; Lentivirus) [nM] | IC50 [2] [nM] | IC50 [3] [nM] | IC50 [1] [nM]
COc1cc2c3cc1Oc1c(OC)c(OC)cc4c1[C@@H](Cc1ccc(O)c(c1)Oc1ccc(cc1)C[C@@H]3N(C)CC2)N(C)CC4 [Berbamine] | 2290 ± 290 | – | – | –
COc1cc2c3cc1Oc1c(O)c(OC)cc4c1[C@@H](Cc1ccc(O)c(c1)Oc1ccc(cc1)C[C@@H]3N(C)CC2)N(C)CC4 [Obamegine] | 1190 ± 160 | 1400 ± 350 | – | –
Aromoline | – | – | 470 ± 80 | 860 ± 120
Bersavine | – | 1240 ± 170 | 2860 ± 130 | 1710 ± 340
